“Also recorded” adds a separate entry of the source.
How the values were obtained:
[1] = test system: Carrageenin-induced hind paw oedema in rats; experiment: Carrageenin-induced hind paw oedema in rats (CAR method), acute inflammation; assay type: in vivo; details: Rattus norvegicus, po, read-out: Anti-inflammatory activity ED50, acute inflammation, CAR
Experimental: (§1) (1) Effect on acute inflammation:
(a) Carrageenin-induced hind paw oedema in rats (CAR method)
The test was carried out according to the method described in Proc. Soc. Exp. Biol. Med., 111, 544 (1962).

[2] = test system: Ultraviolet-induced erythema in guinea-pigs; experiment: Ultraviolet-induced erythema in guinea-pigs (UVE method), acute inflammation; assay type: in vivo; details: Cavia porcellus, po, read-out: Anti-inflammatory activity ED50, acute inflammation, UVE
Experimental: as §1
(b) Ultraviolet-induced erythema in guinea-pigs (UVE method)
The test was carried out according to the method described in Arch. Int. Pharmacodyn. Ther., 116, 261 (1958).

[3] = test system: adjuvant-induced arthritis in rats; experiment: Therapeutic activity on adjuvant-induced arthritis in rats (AAT method), subacute and chronic inflammation; assay type: in vivo; details: Rattus norvegicus, po, read-out: Minimum Effective Dose, subacute and chronic inflammation, AAT*
Experimental: (§2) (2) Effect on subacute and chronic inflammations:
(a) Therapeutic activity on adjuvant-induced arthritis in rats (AAT method)
The test was carried out according to the method described in Brit. J. Pharmacol., 21, 127 (1963) and Japan J. Pharmacol., 23, 58 (1973).

[4] = test system: Felt pellet-induced granuloma formation in rats; experiment: Felt pellet-induced granuloma formation in rats (FGF method), subacute and chronic inflammation; assay type: in vivo; details: Rattus norvegicus, po, read-out: Minimum Effective Dose, subacute and chronic inflammation, FGF*
Experimental: as §2
(b) Felt pellet-induced granuloma formation in rats (FGF method)
The test was carried out according to the method described in J. Amer. Pharm. Assoc., 46, 515 (1957) and Chem. Pharm. Bull., 23, 1446 (1975).

[5] = test system: AgNO3-induced joint pain in rats; experiment: AgNO3-induced joint pain in rats (AGP method), analgesic activity; assay type: in vivo; details: Rattus norvegicus, po, read-out: Analgesic activity ED50, AGP
Experimental: (§3) TEST 2. ANALGESIC ACTIVITY
(a) AgNO3 -induced joint pain in rats (AGP method)
The test was carried out according to the method described in J. Pharmacol. Expt. Ther., 98, 19 (1950)

[6] = test system: Acetic acid (AcOH)-induced writhing in rats; experiment: Acetic acid (AcOH)-induced writhing in rats (ACW method), analgesic activity; assay type: in vivo; details: Rattus norvegicus, po, read-out: Analgesic activity ED50, ACW
Experimental: as §3
(b) Acetic acid (AcOH)-induced writhing in rats (ACW method)
The test was carried out according to the method described in Arzneim. Forsch., 25, 1505 (1975).

[7] = test system: Yeast-induced fever in rats; experiment: Yeast-induced fever in rats (YEF method), antipyretic activity; assay type: in vivo; details: Rattus norvegicus, po, read-out: Antipyretic activity ED50, YEF
Experimental: TEST 3. ANTIPYRETIC ACTIVITY
Yeast-induced fever in rats (YEF method)
The test was carried out according to the method described in Arzneim. Forsch., 13, 338 (1963).

[8] = Gastrointestinal ulcer formation in fed rats (ulcerogenicity); assay type: in vivo; details: rat, in vivo, po, fed rats; read-out: UD50 (50% ulcer forming dose)
Experimental: (§4) TEST 4. ULCEROGENICITY IN GASTROINTESTINAL TRACT
(§5) Gastrointestinal ulcer formation in fed rats
(§6) The test was carried out according to the method described in Science, 170, 183 (1970).

[9] = test system: Gastrointestinal ulcer formation in fed rats; experiment: as above; assay type: in vivo
Experimental: as §4, §5, §6

[10] = in vivo; details: rat, po, rats, once daily for 5 days, mortality on 6th day, read-out: LD50 Repeated
Experimental: (§7) (b) Repeated administrations in rats
(§8) Test compounds were orally administered once daily for 5 days, and LD50 -value was calculated from the mortality on the 6th day.

[11] = Overall comparison of anti-inflammatory, analgesic and antipyretic activities (Tests 1 to 3); assay type: in vivo, rats; guinea-pigs; details: for anti-inflammatory, analgesic and antipyretic activities compared with indomethacin: vs indomethacin (compound 3)
Description: (§9) From these diagrams, the correlation between the pharmacological activity of each compound and its ulcerogenicity and toxicity, i.e. the safety margin of each compound, can be clearly seen. In these Figures, the lines and letters have the following meanings:
(§10) The following conclusions can be drawn from Tables I to III and FIGS. 1 and 2. In the following description, the therapeutic index means LD50 /ED50 (or MED), and the safety index means UD50 /ED50 (or MED). The safety margin of a given compound is broader when it has larger therapeutic and or safety indices.

[12] = assay type: in vivo; details: for therapeutic index compared with indomethacin: vs indomethacin
Description: In the following description, the therapeutic index means LD50 /ED50 (or MED), and the safety index means UD50 /ED50 (or MED).

[13] = Safety index (UD50/ED50 or MED), separation of activity from ulcerogenicity; assay type: in vivo; details: for separation of anti-inflammatory, analgesic and antipyretic activities from ulcerogenicity: FIGS. 1 and 2, vs indomethacin
Description: as §9, §10

[14] = test system: rats; experiment: Overall comparison of lethal toxicity (Test 5); assay type: in vivo; details: for toxicity compared with indomethacin (in words): vs indomethacin
Experimental: (a) Single administration in rats
as §7, §8

[15] = in vivo; details: rat, po, rats, single administration, 7th day, read-out: LD50 Single
[16] = cited from earlier work
[17] = cited from earlier work; remark: listed apart in the source

## Cc1ccc2c(c1)CC(=O)c1cc(C(C)C(=O)O)ccc1S2 (racemic) [compound C, dl-2-(8-Methyl-10,11-dihydro-11-oxodibenzo[b,f]thiepin-2-yl)propionic acid]
[1]
  ED50: 2.08 mg/kg
[2]
  ED50: 0.85 mg/kg
[3]
  minimal effective dose: < 0.2 mg/kg/day
[4]
  minimal effective dose: 1 mg/kg/day
[5]
  ED50: 1.41 mg/kg
[6]
  ED50: 0.84 mg/kg
[7]
  ED50: 0.015 mg/kg
[8]
  TD50: 2.76 mg/kg
[9]; fraction of that of compound 2
  ulcerogenicity relative to compound 2: about 1/4
[10]
  LD50 at 144 h: > 12 mg/kg
[11]; vs compound 2
  pharmacological activities compared with compound 2: comparable or slightly inferior to those of compound 2
[11]
  anti-inflammatory, analgesic and antipyretic activities compared with indomethacin: equivalent or superior to those of indomethacin
[12]; LD50/ED50 (or MED), vs compound 2
  average therapeutic index relative to compound 2: more than 5 times
[12]; safety margin, vs compound 2
  breadth of safety margin compared with compound 2: far superior to compound 2
[12]
  therapeutic index compared with indomethacin: far larger therapeutic indices than indomethacin
[13]
  separation of anti-inflammatory, analgesic and antipyretic activities from ulcerogenicity: more separated from ulcerogenicity in the gastrointestinal tract than in indomethacin; also recorded: Especially good separation
[13]; UD50/ED50 (or MED), vs compound 2
  average safety index relative to compound 2: about 4 times
[14]; fraction of that of compound 2
  toxicity relative to compound 2: less than 1/6
[14]
  toxicity compared with indomethacin (in words): far weaker than those of indomethacin

## Cc1ccc2c(c1)CC(=O)c1cc(C(C)C(=O)OCCOCCO)ccc1O2 (racemic) [compound E, 2-(2-Hydroxyethoxy)ethyl dl-2-(8-methyl-10,11-dihydro-11-oxodibenz[b,f]oxepin-2-yl)propionate]
[1]
  ED50: 3.61 mg/kg
[2]
  ED50: 1.41 mg/kg
[3]
  minimal effective dose: 0.2 mg/kg/day
[4]
  minimal effective dose: 2 mg/kg/day
[5]
  ED50: 3.8 mg/kg
[6]
  ED50: 0.27 mg/kg
[7]
  ED50: 0.055 mg/kg
[8]
  TD50: 4.04 mg/kg
[9]; ulcerogenicity together with toxicity, vs compound A
  ulcerogenicity and toxicity compared with compound A: weaker than those of compound A
[15]
  LD50 at 168 h: 219 mg/kg
[10]
  LD50 at 144 h: > 16 mg/kg
[11]; vs compound 1
  pharmacological activities compared with compound 1: equivalent to, or more potent, than those of compound 1
[11]; vs compound A
  pharmacological activities compared with compound A: somewhat inferior to those of compound A
[11]
  anti-inflammatory, analgesic and antipyretic activities compared with indomethacin: equivalent or superior to those of indomethacin
[12]; safety and therapeutic indices, vs compound A
  average safety and therapeutic indices compared with compound A: comparable to those of compound A
[12]; safety margin, vs compound 1
  breadth of safety margin compared with compound 1: better
[12]
  therapeutic index compared with indomethacin: far larger therapeutic indices than indomethacin
[13]
  separation of anti-inflammatory, analgesic and antipyretic activities from ulcerogenicity: more separated from ulcerogenicity in the gastrointestinal tract than in indomethacin; also recorded: Especially good separation
[14]
  toxicity compared with indomethacin (in words): far weaker than those of indomethacin

## O=C(O)Cc1ccc2c(c1)CC(=O)c1ccccc1S2 [10,11-dihydro-10-oxodibenzo[b,f]thiepin-2-acetic acid]
[16]
  anti-inflammatory activity relative to phenylbutazone: 0.4 time
[17]
  analgesic activity relative to aspirin: equivalent to that of aspirin

Source: US4238620A, “Dibenz[b,f]oxepin and dibenzo[b,f]thiepin derivatives, process for preparation thereof, method of using the same, and compositions thereof” (priority 1978, dated 1980)
